Test results: ChEMBL document CHEMBL3217566, “Unprecedented inhibition of resistant penicillin binding proteins by bis-2-oxoazetidinyl macrocycles” (Medchemcomm, 2012)

What was measured:
Staphylococcus aureus = experiment: Inhibition of methicillin-resistant Staphylococcus aureus ATCC 43300 PBP5 assessed as residual activity at 1 mM after 4 hrs by fluorescence spectroscopy in presence of fluorescein-labeled ampicillin
Enterococcus faecium = experiment: Inhibition of Enterococcus faecium D63r PBP5 assessed as assessed as residual activity at 1 mM after 4 hrs by fluorescence spectroscopy in presence of fluorescein-labeled ampicillin
Actinomadura sp. R39 = experiment: Inhibition of Actinomadura R39 D,D-peptidase assessed as inhibition of hydrolysis of thiolester substrate S2d measured as residual activity at 100 uM after 1 hr by Ellman's method

SMILES	Activity (Staphylococcus aureus) [%]	Activity (Enterococcus faecium) [%]	Activity (Actinomadura sp. R39) [%]
C=CCCCCC(=O)N[C@H]1CN(C(=O)CCCC)C1=O	100	5	97
CCCCC(=O)N1C[C@H](NC(=O)CCCCCCCCCCC(=O)N[C@H]2CN(C(=O)CCCC)C2=O)C1=O	90	3	89
C=CCCC(=O)N1C[C@H](NC(=O)CCCCCC)C1=O	100	6	92
C=CCCCCC(=O)N1C[C@H](NC(=O)CCCC=C)C1=O	82	15	86
C=CCCC(=O)N[C@H]1CN(C(=O)CCC=C)C1=O	79	> 100	72
C=CCCCCC(=O)N[C@H]1CN(C(=O)CCCCC=C)C1=O	81	23	80
CCCCCCC(=O)N[C@H]1CN(C(=O)CC/C=C/CCC(=O)N2C[C@H](NC(=O)CCCCCC)C2=O)C1=O	100	0	100
C=CCCCC(=O)N[C@H]1CN(C(=O)CCC=C)C1=O	93	14	98
C=CCCCCC(=O)N[C@H]1CN(C(=O)CCC=C)C1=O	89	14	91
CCCCC(=O)N1C[C@H](NC(=O)CCCC/C=C/CCCCC(=O)N[C@H]2CN(C(=O)CCCC)C2=O)C1=O	89	5	90
C=CCCCC(=O)N[C@H]1CN(C(=O)CCCC=C)C1=O	100	17	90
C=CCCCCC(=O)N1C[C@H](NC(=O)CCC=C)C1=O	77	50	72
C=CCCCC(=O)N1C[C@H](NC(=O)CCC=C)C1=O	100	39	99
C=CCCCCC(=O)N[C@H]1CN(C(=O)CCCC=C)C1=O	85	21	74
CCCCCCC(=O)N[C@H]1CN(C(=O)CCCCCCC(=O)N2C[C@H](NC(=O)CCCCCC)C2=O)C1=O	99	10	74
